In patent US20180177778A1, “Methods for Treating HCV” (priority 2015, published 2018):

Tests used:
[1] = Effect of food on bioavailability of co-formulated tablets, healthy Japanese subjects (Example 20); format: in vivo, human; details: for Tmax: both sexes, mean Tmax
From the text: Japanese male and female volunteers 20 to 55 years of age in general good health with a body mass index ≥18.5 and <25 kg/m^2 were eligible to enroll. Subjects who had positive test results for hepatitis A, B, or C, or for HIV infection, and subjects who were using known inhibitors or inducers of CYP3A isozyme or organic anion transporting polypeptide 1B1 (OATP1B1) inhibitors were excluded from participation. Subjects were not to have consumed alcohol, grapefruit, star fruit, or Seville oranges within 72 hours, or to have used nicotine-containing products within 6 months before study drug administration.
This was a 2-sequence 2-period crossover study. A single dose of two ombitasvir/paritaprevir/ritonavir 12.5/75/50 mg coformulated tablets (total dose of 25/150/100 mg) was administered in the morning on Study Day 1 of each period as follows:
PK parameters for ombitasvir, paritaprevir, and ritonavir were estimated by noncompartmental methods using Phoenix WinNonlin, version 6.3 (Pharsight, A Certara® Company, St. Louis, Mo.) including maximum plasma concentration (Cmax), time to Cmax (Tmax), area under the plasma concentration-time curve (AUC), and terminal-phase elimination half-life (t1/2). The effect of food on the bioavailability of ombitasvir, paritaprevir, and ritonavir was assessed using a repeated measures analysis of natural logarithms of Cmax and AUC values. Point estimates of central value ratios and their 90% confidence intervals (CIs) for Cmax and AUC were calculated to quantify the magnitude of food effect. Statistical analyses were conducted using SAS, version 9.2 (SAS Institute, Inc., Cary, N.C.).

[2] = Population pharmacokinetics in HCV GT1 subjects with CKD Stage 4 or 5 (Example 17); format: in vivo, human; details: vs subjects without kidney disease
Description: Pharmacokinetic data from a Phase 2 study (N=38) in subjects with normal or mild renal impairment (subjects “without kidney disease”) were combined with preliminary data from a Phase 3b study in subjects with CKD Stage 4 (N=5) or Stage 5 on hemodialysis (N=14). In both studies subjects received OBV/PTV/r 25/150/100 mg QD and DSV 250 mg BID±RBV for 12 weeks. Pharmacokinetic parameters and steady-state exposures of the 3-DAA regimen were estimated using population pharmacokinetic models.

[3] = in vivo; cited from earlier work
[4] = human, in vivo
Description: All subjects received ombitasvir/paritaprevir/ritonavir 25/150/100 mg QD and dasabuvir 250 mg BID±weight based RBV. DAAs (OBV, PTV, or DSV) and RTV AUC values were available from 2093 subjects and RBV AUC values were available from 1584 subjects. The dataset included subjects with normal renal function (NF) (CrCl ≥90 mL/min, n=1495), mild renal impairment (RI) (CrCL 60-89 mL/min, n=576) and moderate RI (CrCL 30-59 mL/min, n=22). […] CrCL was retained in the models, regardless of its statistical significance, to determine the effect, if any, on the AUC values.

Tmax ([1]; human, in vivo) [h] | increase of mean AUC ([1]; both, human, in vivo) [%] | mean Tmax ([1]; both, human, in vivo) [h] | exposures lower in CKD Stage 5 [2] | Compound | exposures higher in CKD Stage 4 subjects [2] | further results
 |  |  |  | dimethyl (2S,2′S)-1,1′-((2S,2′S)-2,2′-(4,4′-((2S,5S)-1-(4-tert-butylphenyl)pyrrolidine-2,5,diyl)bis(4,1-phenylene))bis(azanediyl)bis(oxomethylene)bis(pyrrolidine-2,1-diyl)bis(3-methyl-1-oxobutane-2,1-diyl)dicarbamate [Compound 2] | about 80% | mean Tmax ([1]; fasting conditions, single dose 25/150/100 mg): 4.4 h; increase of mean AUC ([1]; high fat meal relative to fasting, Japanese subjects): 73%; mean Tmax ([1]; with a high fat meal, single dose 25/150/100 mg): 5.3 h
3.4 | 34 | 4.9 | about 33% | CC(C)c1nc(CN(C)C(=O)N[C@H](C(=O)N[C@@H](Cc2ccccc2)C[C@H](O)[C@H](Cc2ccccc2)NC(=O)OCc2cncs2)C(C)C)cs1 [ritonavir, reference compound] | ~200% | 
4.2 | 228 | 5.2 |  | Cc1cnc(C(=O)N[C@H]2CCCCC/C=C\[C@@H]3C[C@@]3(C(=O)NS(=O)(=O)C3CC3)NC(=O)[C@@H]3C[C@@H](Oc4nc5ccccc5c5ccccc45)CN3C2=O)cn1 [Compound 1, (2R,6S,13aS,14aR,16aS,Z)—N-(cyclopropylsulfonyl)-6-(5-methylpyrazine-2-carboxamido)-5,16-dioxo-2-(phenanthridin-6-yloxy)-1,2,3,5,6,7,8,9,10,11,13a,14,14a,15,16,16a-hexadecahydrocyclopropa[e]pyrrolo[1,2-a][1,4]diazacyclopentadecine-14a-carboxamide] |  | 
 |  |  | ~37% | COc1c(-c2ccc3cc(NS(C)(=O)=O)ccc3c2)cc(-n2ccc(=O)[nH]c2=O)cc1C(C)(C)C [Compound 3, N-(6-(3-tert-butyl-5-(2,4-dioxo-3,4-dihydropyrimidin-1(2H)-yl)-2-methoxyphenyl)naphthalen-2-yl)methanesulfonamide] |  | 
 |  |  |  | NC(=O)c1ncn([C@@H]2O[C@H](CO)[C@@H](O)[C@H]2O)n1 [Ribavirin, ribavirin] |  | absolute bioavailability [3]: approximately 50%; AUC values higher in mild/moderate RI compared to NF [4]: up to 17%
